For data set [1], the system named is processing of PGRN into GRNs. Kind of data set: Protease inhibitor panel, PGRN/GRN levels by immunoblot. In kind it is cell-based, human. To be noted: HAP1 WT cells, 24 hrs. On the procedure:
(§1) Asterisks (*) denote endogenous, intermediate PGRN cleavage products.
Processing of PGRN into GRNs likely involves one or more lysosomal proteases. To narrow down which class of proteases may be responsible for intracellular PGRN metabolism, HAP1 WT cells were treated with a panel of protease inhibitors and measured PGRN/GRN levels by immunoblot. […] One potential candidate lysosomal cysteine protease is cathepsin L, which was reported to cleave mouse PGRN in vitro.
(In general: In western blotting, separated proteins are transferred to a membrane and probed.)

For data set [2], the system named is processing of PGRN into GRNs. Kind of data set: Pan-lysosomal inhibitor treatment, PGRN/GRN levels by ELISA and immunoblot. The class given is cell-based, human. To be noted: HAP1 WT cells, 24 hrs, CQ 50 μM, BafA1 50 nM, ConA 50 nM; for secreted PGRN: conditioned media ELISA; for GRN levels / intracellular PGRN: immunoblot. On the procedure:
HAP1 WT cells were treated for 24 hrs with the pan-lysosome inhibitors chloroquine (CQ; 50 μM), bafilomycin A1 (BafA1; 50 nM), or concanamycin A (ConA; 50 nM) and conditioned media was analyzed for secreted PGRN by ELISA.
as §1
Because rapid processing of endocytosed PGRN into GRNs was observed, inhibiting lysosome function could impair GRN production. To determine the effect of pharmacologic lysosome inhibition on GRN levels, HAP1 WT cells were treated with the pan-lysosomal inhibitors chloroquine, bafilomycin A1, or concanamycin A1 for 24 hours and monitored PGRN/GRN levels by immunoblot. These compounds act as lysosome alkalizing agents or inhibitors of the vacuolar-type H+-ATPase (V-ATPase), which is needed for proper lysosome acidification and function. Further, these compounds increase intracellular and secreted PGRN.
On the technique in general: ELISA stands for enzyme-linked immunosorbent assay.

For data set [3], the system named is processing of PGRN into GRNs. Put plainly: Cathepsin L inhibitor II treatment, PGRN/GRN levels by immunoblot. The class given is cell-based, human. The following applies: HAP1 WT cells, increasing concentrations, 40 hrs.
From the text: as §1

For data set [4] the following is noted: at 25° C.; cited from earlier work.
Another data set has as its system Grn KO MEF cells. Put plainly: Rescue of cathepsin-D (CTSD) phenotype in Grn KO MEFs by exogenous protein. In kind it is cell-based, mouse. The following applies: PGRN 10 μg/mL or GRN-2 proteins 25 μg/mL, 120 hrs, immunoblot.
The test system of data set [5] is PGRN KO mouse embryonic fibroblasts (MEFs). Put plainly: Uptake of recombinant PGRN and generation of GRNs in PGRN KO MEFs. In kind it is cell-based. To be noted: 5 or 10 μg/mL, immunoblot. As for the experimental part: PGRN KO MEF cells were treated with recombinant human PGRN (5 or 10 μg/mL) or recombinant mouse PGRN (5 μg/mL) in the media for 24 hrs and lysates were analyzed for PGRN (R&D AF2420) and GRN (Sigma) by immunoblot.
Because this study focused on screening and validating human specific PGRN antibodies, antibodies to detect endogenous mouse GRNs have not been identifies. Nevertheless, to determine if mouse cells are able to process human PGRN into mature GRNs, primary PGRN KO mouse embryonic fibroblasts (MEFs) were treated with recombinant human or mouse PGRN for […]. PGRN/GRN levels were measured in the lysates by immunoblot. […] Next, experiments were performed to determine if human PGRN would be processed into GRNs in mouse brain. Somatic brain transgenesis (SBT) were performed by injecting rAAV2/1 encoding eGFP or human N-TAP PGRN into the cerebral ventricles of newborn (PO) PGRN KO mice. The SBT paradigm leads to transgene expression that is almost exclusively neuronal as assessed by predominant co-localization between eGFP or PGRN (V5) and the neuronal marker NeuN at 3 months of age.

A further data set deals with C-TAP PGRN (UniProt P28799).
Another data set addresses cathepsin L (Homo sapiens, UniProt P07711). Put plainly: In vitro cleavage of PGRN by recombinant cathepsin L. In kind it is biochemical.
A further data set deals with HAP1 PGRN KO cells. Kind of data set: Uptake and processing of C-TAP or N-TAP PGRN into GRNs (immunoblot). The class given is cell-based, human. To be noted: 5 μg/mL, 24 hrs, compared to N-TAP PGRN. On the procedure: HAP1 PGRN KO cells were treated with C-TAP PGRN or N-TAP PGRN (5 μg/mL) for 24 hrs and […] lysates were analyzed for PGRN and GRN by immunoblot.
PGRN levels have been linked to expression of several genes including SORT1, encoding the membrane receptor sortilin, and TMEM106B, encoding the transmembrane protein 106B (TMEM106B). Thus, altered expression of these proteins could affect the production of intracellular GRNs as well. To address this, experiments were performed to determine if expression of sortilin, which facilitates endocytosis and trafficking of PGRN to the lysosome, influences GRN levels. PGRN KO cells were treated with PGRN tagged at either the C-terminus (C-TAP), which disrupts sortilin binding or the N-terminus (N-TAP), which preserves sortilin binding, and measured intracellular PGRN and GRN by immunoblot. […] Next, HAP1 SORT1 KO cells were generated using CRISPR/Cas9 technology. […] Thus, disruption of the SORT1/PGRN axis alters intracellular PGRN trafficking and leads to decreased GRN production.

Where a SMILES comes first, the peptide text is derived from it. Where no end group is shown, it is not given here. [ ]: non-standard residue; d: D form. The star is where a group is joined. Nle = CCCC[C@H](N)C(=O)O; Cbz = O=C(OCc1ccccc1)*

Sequence of cathepsin L (P07711 114-333, species assumed): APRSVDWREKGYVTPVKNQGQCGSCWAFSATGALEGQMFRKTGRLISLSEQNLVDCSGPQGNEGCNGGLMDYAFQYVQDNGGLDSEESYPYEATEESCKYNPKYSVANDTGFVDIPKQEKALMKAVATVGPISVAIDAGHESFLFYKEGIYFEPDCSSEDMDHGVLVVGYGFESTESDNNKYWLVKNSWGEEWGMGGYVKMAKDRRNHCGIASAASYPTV

As for `CCCC[C@@H](C=O)NC(=O)[C@H](CC(C)C)NC(=O)[C@H](CC(C)C)NC(C)=O` [ALLN] (Ac-Leu-Leu-[Nle]-aldehyde), the “GRN levels compared to vehicle treated control” value in data set [1] is “reduced GRN levels”.

In the case of `CC(NC(=O)[C@H](Cc1ccccc1)NC(=O)OCc1ccccc1)C(=O)CF` (stereo partly drawn) [Z-FA-fmk], in data set [1], the “GRN levels compared to vehicle treated control” value is reported as “reduced GRN levels”.

As to `CO/C1=C\C(C)=C\[C@@H](C)[C@@H](O)[C@@H](C)C/C(C)=C/C=C/[C@H](OC)[C@@H]([C@@H](C)[C@@H](O)[C@H](C)[C@@]2(O)C[C@@H](O)[C@H](C)[C@@H](C(C)C)O2)OC1=O` [bafilomycin A1], in data set [2], the “secreted PGRN” value was “significantly increased”, the GRN levels entry is given as “significantly decreased” and the “intracellular PGRN” value is on record as “significantly increased”.

For `O=C[C@H](Cc1ccc(O)cc1)NC(=O)[C@H](Cc1ccccc1)NC(=O)OCc1ccccc1` [cathepsin L inhibitor II, Z-FY-CHO] (Cbz-Phe-Tyr-aldehyde), in data set [3], the “endogenous PGRN” value was “modestly increased” and the “production of GRN” value is “significantly decreasing”.

As for `CCN(CC)CCCC(C)Nc1ccnc2cc(Cl)ccc12` (stereo not drawn) [chloroquine], in data set [2], the “secreted PGRN” value is on record as “significantly increased”, the GRN levels result was “significantly decreased” and the “intracellular PGRN” value was “significantly increased”.

For the molecule `C/C=C/[C@H]1O[C@@](O)([C@@H](C)[C@H](O)[C@H](C)[C@H]2OC(=O)/C(OC)=C/C(C)=C/[C@@H](C)[C@@H](O)[C@@H](CC)[C@@H](O)[C@H](C)C/C(C)=C/C=C/[C@@H]2OC)C[C@@H](O[C@H]2C[C@@H](O)[C@H](OC(N)=O)[C@@H](C)O2)[C@@H]1C` [concanamycin A1, concanamycin A], in [2], the “secreted PGRN” value is reported as “significantly increased”, the GRN levels result is reported as “significantly decreased” and the “intracellular PGRN” value is reported as “significantly increased”.

Consider `CC(=O)N[C@@H](CC(C)C)C(=O)N[C@@H](CC(C)C)C(=O)N[C@H](C=O)CCCNC(=N)N` [leupeptin], for which the “GRN levels compared to vehicle treated control” value in [1] was “reduced GRN levels”.

With `CCCCCCCC` [octane], the “percent solubility in water by weight” value in data set [4] is recorded as 0.63×10^−4 % w/w.

“GRN-2: recombinant human granulin-2 protein, SEQ ID NO: 21, with twin Strep-tag (AIQCPDSQFECPDFSTCCVMVDGSWGCCPMPQASCCEDRVHCCPHGAFCDLVHTRCIT; cysteine pairing not given here; also: twin Strep-tag (position not given here))”: in the data set with Grn KO MEF cells, the “CTSD phenotype (total mature CTSD levels)” value was “rescues the CTSD phenotype”.

As for “N-TAP PGRN: full-length human PGRN with twin Strep tag and V5 epitope after the signal sequence; preserves sortilin binding”, the “endocytosis of PGRN and generation of mature human GRNs” value (“endocytosis … of mature human GRNs” below) in [5] is given as “equally well”.

recombinant cathepsin L: in the data set with C-TAP PGRN, the “in vitro cleavage of PGRN (immunoblot)” value was “Incubation of cathepsin L and recombinant human PGRN lead to the time-dependent decrease of full-length PGRN and a corresponding increase of GRN protein”.

For “recombinant human PGRN: recombinant full-length human progranulin protein (C-TAP PGRN in the cathepsin L cleavage)”, in the data set with Grn KO MEF cells, the “CTSD phenotype (total mature CTSD levels)” value was “can be rescued”. Besides, in the data set with cathepsin L (2 hrs, immunoblot), the “GRNs generated by in vitro cleavage with cathepsin L” value is “generated multiple, mature GRNs including GRN-2, -3, and -4”. For the same molecule, the “full-length PGRN on incubation with cathepsin L” value with cathepsin L (with corresponding increase of GRN protein) is listed as “time-dependent decrease”. Besides, in data set [5], the “endocytosis … of mature human GRNs” value is listed as “efficiently endocytosed”.

B1: C-TAP PGRN: full-length human PGRN with C-terminal twin-Strep tag followed by FLAG epitope; disrupts sortilin binding (protein)
chain: TRCPDGQFCPVACCLDPGGASYSCCRPLLDKWPTTLSRHLGGPCQVDAHCSAGHSCIFTVSGTSSCCPFPEAVACGDGHHCCPRGFHCSADGRSCFQRSGNNSVGAIQCPDSQFECPDFSTCCVMVDGSWGCCPMPQASCCEDRVHCCPHGAFCDLVHTRCITPTGTHPLAKKLPAQRTNRAVALSSSVMCPDARSRCPDGSTCCELPSGKYGCCPMPNATCCSDHLHCCPQDTVCDLIQSKCLSKENATTDLLTKLPAHTVGDVKCDMEVSCPDGYTCCRLQSGAWGCCPFTQAVCCEDHIHCCPAGFTCDTQKGTCEQGPHQVPWMEKAPAHLSLPDPQALKRDVPCDNVSSCPSSDTCCQLTSGEWGCCPIPEAVCCSDHQHCCPQGYTCVAEGQCQRGSEIVAGLEKMPARRASLSHPRDIGCDQHTSCPVGQTCCPSLGGSWACCQLPHAVCCEDRQHCCPAGYTCNVKARSCEKEVVSAQPATFLARSPHVGVKDVECGEGHFCHDNQTCCRDNRQGWACCPYRQGVCCADRRHCCPAGFRCAARGTKCLRREAPRWDAPLRDPALRQLL
modifications: left off: small tags and cut ends
As to B1, in the data set with HAP1 PGRN KO cells, the “endocytosis and processing into GRNs” value was “not efficiently endocytosed and processed into GRNs”. Moreover, the “endocytosis … of mature human GRNs” value in [5] is on record as “equally well”.

Values taken from patent US20240002459A1, “Granulin Compositions and Uses Related Thereto” (Emory University, priority 2016, published 2024).
